Experimental data taken from US7585859B2, “PDE4B inhibitors and uses therefor” (Plexxikon, Inc., priority 2004, dated 2009).

Legend:
Format in all cases: biochemical
[1] = molecular target: T1, full-length human PDE4B2 isozyme (Homo sapiens, UniProt Q07343); assay: PDE4 IC50 determination by Scintillation Proximity Assay, PDE4B2; settings: Table 1B, Formula I compounds; read-out: IC50 PDE4B2
T1 construct: The full-length human PDE4B2 isozyme; His6 (N); TEV cleavage site (N); made in house; host or cells: baculovirus infected insect cells (unpurified lysate)
T1 sequence (Q07343 1-564 isoform Q07343-2): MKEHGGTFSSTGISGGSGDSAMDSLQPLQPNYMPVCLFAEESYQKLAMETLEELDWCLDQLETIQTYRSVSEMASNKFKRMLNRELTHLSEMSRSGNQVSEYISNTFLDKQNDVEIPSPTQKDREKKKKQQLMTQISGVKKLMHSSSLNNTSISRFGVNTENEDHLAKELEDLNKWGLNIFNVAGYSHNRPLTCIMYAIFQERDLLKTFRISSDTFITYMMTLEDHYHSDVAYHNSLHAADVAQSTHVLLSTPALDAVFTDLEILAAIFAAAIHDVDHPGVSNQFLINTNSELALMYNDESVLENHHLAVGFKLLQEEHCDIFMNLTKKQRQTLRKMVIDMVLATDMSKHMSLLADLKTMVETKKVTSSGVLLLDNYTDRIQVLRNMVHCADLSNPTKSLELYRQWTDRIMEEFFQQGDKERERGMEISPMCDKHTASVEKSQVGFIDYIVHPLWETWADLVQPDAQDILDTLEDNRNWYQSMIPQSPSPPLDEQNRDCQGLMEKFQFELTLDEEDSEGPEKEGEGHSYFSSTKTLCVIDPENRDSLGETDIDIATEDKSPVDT
Description: (§1) IC50s were determined by Scintillation Proximity Assay (SPA). The principle of the assay is based on the fact that cAMP, the PDE4 substrate, binds weakly to Yittrium Silicate SPA beads, whereas AMP, the product of PDE4 hydrolysis binds strongly. Thus, the extent of PDE4 hydrolysis of a sample of [^3H]cAMP can be measured because only the
(§2) [^3H]AMP produced by PDE4 hydrolysis will bind to the SPA beads and produce a scintillation signal.
(§3) PDE4 enzymes used for IC50 assays were:
PDE4B2: The full-length human PDE4B2 isozyme with an N-terminal His6 tag (SEQ ID NO: 18) and TEV cleavage site expressed in baculovirus infected insect cells. The enzyme was not purified from the cell lysates, so enzyme concentrations were not determined. Enzyme was stored in 50% glycerol at −20°.
(§4) Compounds tested (see Tables 3B, 4B and 5A for compounds and results) were 3-fold serially diluted 11 times in DMSO from a starting concentration of 4 mM or 40 μM, depending on compound potency. 1 μl of each dilution was transferred into duplicate wells of a white polystyrene 384-well assay plate (Coming #3705). In addition to the compound dilutions, each assay plate contained control wells with 1 μl of DMSO (to define 0% enzyme inhibition) or 1 μl of 200 μM roflumilast (to define 100% enzyme inhibition). Using a Beckman FX robot, 10 μl of [^3H] cAMP (Amersham TRK559) at 2 mCi/ml in assay buffer (50 mM Tris, pH 7.5; 8.3 mM MgCl; 1.7 mM EGTA; 0.01% BSA) was transferred to each assay well. Next, 10 μl of PDE4 enzyme in assay buffer was added and the plates were shaken for 30 s. at 1000 rpm to start the cAMP hydrolysis reaction. The concentrations of enzyme used were: PDE4B, 80 ng/ml; PDE4D, 4 ng/ml; PDE4B2, 2.5 μl of 50% glycerol stock/ml; PDE4D5 0.083 μl of 50% glycerol stock/ml. Assay plates were covered and incubated for 30 min. at 30°. Reactions were stopped by robotic addition of 10 μl of 5 mg/ml SPA beads (Amersham RPNQ0013) in 18 mM ZnSO4. The assay plates were covered with clear plastic film, centrifuged for 1 min. at 1000 RPM to settle the SPA beads, and counted using a Wallac TriLux scintillation counter. IC50's were calculated from the raw assay data by non-linear regression curve fitting using the Assay Explorer software package from MDL.

[2] = molecular target: T2, PDE4B: The catalytic domain of human PDE4B from S152-S528 (Homo sapiens, UniProt Q07343); assay: PDE4 IC50 determination by Scintillation Proximity Assay, PDE4B; settings: Table 1B, Formula I compounds; read-out: IC50 PDE4B
T2 construct: His6 (N); thrombin cleavage site (N); made in house; host or cells: E. coli
T2 sequence (Q07343 with tags, fused parts or gaps): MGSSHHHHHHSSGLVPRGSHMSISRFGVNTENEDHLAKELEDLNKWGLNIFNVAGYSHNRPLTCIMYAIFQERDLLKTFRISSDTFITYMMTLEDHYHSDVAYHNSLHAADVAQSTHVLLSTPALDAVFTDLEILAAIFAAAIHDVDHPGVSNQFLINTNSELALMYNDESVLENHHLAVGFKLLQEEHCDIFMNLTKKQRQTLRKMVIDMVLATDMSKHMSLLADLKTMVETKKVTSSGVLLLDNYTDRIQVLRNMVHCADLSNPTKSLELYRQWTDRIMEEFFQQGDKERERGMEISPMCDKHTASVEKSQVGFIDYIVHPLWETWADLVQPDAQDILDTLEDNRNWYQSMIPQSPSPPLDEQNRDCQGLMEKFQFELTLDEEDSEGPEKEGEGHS
In short: (§5)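 Enzyme was added to compound and [^3H]cAMP, then incubated 30 min at 30° (PDE4B 80 ng/ml; PDE4D 4 ng/ml). Product [^3H]AMP bound to SPA beads and was counted. IC50 was fitted by non-linear regression against DMSO and roflumilast controls.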

[3] = molecular target: T3, full-length human PDE4D5 isozyme (Homo sapiens, UniProt Q08499); assay: PDE4 IC50 determination by Scintillation Proximity Assay, PDE4D5; settings: Table 1B, Formula I compounds; read-out: IC50 PDE4D5
T3 construct: The full-length human PDE4D5 isozyme; His6 (N); TEV cleavage site (N); made in house; host or cells: baculovirus infected insect cells (unpurified lysate)
T3 sequence (Q08499 1-745 isoform Q08499-6): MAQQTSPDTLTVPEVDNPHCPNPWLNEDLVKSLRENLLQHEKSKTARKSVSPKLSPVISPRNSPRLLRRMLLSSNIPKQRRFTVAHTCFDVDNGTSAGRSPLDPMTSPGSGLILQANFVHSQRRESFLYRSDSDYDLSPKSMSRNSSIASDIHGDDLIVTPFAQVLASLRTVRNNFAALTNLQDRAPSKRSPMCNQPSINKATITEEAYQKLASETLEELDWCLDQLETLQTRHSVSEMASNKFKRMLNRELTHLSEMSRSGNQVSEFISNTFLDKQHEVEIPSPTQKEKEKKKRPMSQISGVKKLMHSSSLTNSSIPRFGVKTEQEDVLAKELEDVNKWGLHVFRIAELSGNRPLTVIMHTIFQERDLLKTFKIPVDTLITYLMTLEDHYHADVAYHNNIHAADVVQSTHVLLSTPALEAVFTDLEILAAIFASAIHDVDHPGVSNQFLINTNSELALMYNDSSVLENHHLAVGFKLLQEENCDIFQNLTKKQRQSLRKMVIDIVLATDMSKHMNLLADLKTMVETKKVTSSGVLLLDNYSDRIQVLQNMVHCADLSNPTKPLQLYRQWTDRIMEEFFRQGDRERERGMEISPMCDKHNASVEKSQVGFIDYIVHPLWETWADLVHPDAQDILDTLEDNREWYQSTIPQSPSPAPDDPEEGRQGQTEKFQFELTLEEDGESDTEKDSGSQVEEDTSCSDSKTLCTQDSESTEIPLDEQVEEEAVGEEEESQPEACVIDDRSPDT
Description: as §1, §2, §3
PDE4D5: The full-length human PDE4D5 isozyme with an N-terminal His6 tag (SEQ ID NO: 18) and TEV cleavage site expressed in baculovirus infected insect cells. The enzyme was not purified from the cell lysates, so enzyme concentrations were not determined. Enzyme was stored in 50% glycerol at −20°.
as §4

PDE4D = molecular target: T4, PDE4D (Homo sapiens, UniProt Q08499); assay: PDE4 IC50 determination by Scintillation Proximity Assay, PDE4D; settings: Table 1B, Formula I compounds; read-out: IC50 PDE4D
T4 construct: PDE4D: The catalytic domain of human PDE4B from S3 16-V692; His6 (N); thrombin cleavage site (N); made in house; host or cells: E. coli
T4 sequence (Q08499 380-756): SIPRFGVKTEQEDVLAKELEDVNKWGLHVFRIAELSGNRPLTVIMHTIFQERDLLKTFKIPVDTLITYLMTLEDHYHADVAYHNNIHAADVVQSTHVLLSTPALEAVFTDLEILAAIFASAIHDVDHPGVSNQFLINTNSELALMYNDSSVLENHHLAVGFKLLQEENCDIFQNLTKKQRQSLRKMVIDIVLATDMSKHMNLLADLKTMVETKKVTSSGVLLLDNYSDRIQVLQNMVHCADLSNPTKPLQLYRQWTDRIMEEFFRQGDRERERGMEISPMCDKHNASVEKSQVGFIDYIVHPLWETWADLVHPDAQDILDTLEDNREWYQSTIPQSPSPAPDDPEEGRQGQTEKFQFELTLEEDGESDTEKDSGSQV
In short: as §5

Structure (SMILES): COc1ccccc1Nc1sc(C(=O)c2ccc(C)cc2)c(N)c1C#N [Compound 1-2, 4-Amino-2-(2-methoxy-phenylamino)-5-(4-methyl-benzoyl)-thiophene-3-carbonitrile]
- IC50 [1]: < 10 µM
- IC50 [2]: < 10 µM
- IC50 [3]: < 10 µM
- IC50 (PDE4D): < 10 µM

Structure (SMILES): NC(=O)c1c(Nc2ccccc2)sc(C(=O)c2ccccc2)c1N [Compound 1-12, 4-Amino-5-benzoyl-2-phenylamino-thiophene-3-carboxylic acid amide]
- IC50 [1]: > 10 µM
- IC50 [2]: > 10 µM
- IC50 [3]: > 10 µM
- IC50 (PDE4D): > 10 µM

Structure (SMILES): N#Cc1c(Nc2ccccc2)sc(C(=O)c2ccccc2)c1N [Compound 1-16, 4-Amino-5-benzoyl-2-phenylamino-thiophene-3-carbonitrile]
- IC50 [1]: > 10 µM
- IC50 [2]: < 10 µM
- IC50 [3]: > 10 µM
- IC50 (PDE4D): > 10 µM

Structure (SMILES): N#Cc1c(Nc2ccc(Cl)cc2)sc(C(=O)c2sccc2Cl)c1N [Compound 1-17, 4-Amino-2-(4-chloro-phenylamino)-5-(3-chloro-thiophene-2-carbonyl)-thiophene-3-carbonitrile]
- IC50 [1]: < 10 µM
- IC50 [2]: < 10 µM
- IC50 [3]: < 10 µM
- IC50 (PDE4D): < 10 µM

Structure (SMILES): N#Cc1c(Nc2ccc(Cl)cc2)sc(C(=O)c2ccc(Cl)cc2Cl)c1N [Compound 1-18, 4-Amino-2-(4-chloro-phenylamino)-5-(2,4-dichloro-benzoyl)-thiophene-3-carbonitrile]
- IC50 [1]: < 10 µM
- IC50 [2]: < 10 µM
- IC50 [3]: < 10 µM
- IC50 (PDE4D): < 10 µM

Structure (SMILES): CCOC(=O)c1c(Nc2ccccc2OC)sc(C(=O)c2ccccc2)c1N [Compound 1-21, 4-Amino-5-benzoyl-2-(2-methoxy-phenylamino)-thiophene-3-carboxylic acid ethyl ester]
- IC50 [1]: < 10 µM
- IC50 [2]: < 10 µM
- IC50 [3]: < 10 µM
- IC50 (PDE4D): < 10 µM

Structure (SMILES): CCOC(=O)c1c(Nc2ccccc2F)sc(C(=O)c2ccc(Cl)cc2)c1N [Compound 1-22, 4-Amino-5-(4-chloro-benzoyl)-2-(2-fluoro-phenylamino)-thiophene-3-carboxylic acid ethyl ester]
- IC50 [1]: < 10 µM
- IC50 [2]: < 10 µM
- IC50 [3]: < 10 µM
- IC50 (PDE4D): < 10 µM

Structure (SMILES): COc1ccc(C(=O)c2sc(NC3CCCC3)c(C#N)c2N)c(OC)c1 [Compound 1-43, 4-Amino-2-cyclopentylamino-5-(2,4-dimethoxy-benzoyl)-thiophene-3-carbonitrile]
- IC50 [1]: < 10 µM
- IC50 [2]: < 10 µM
- IC50 [3]: < 10 µM
- IC50 (PDE4D): < 10 µM

Structure (SMILES): COc1ccc(Nc2sc(C(=O)c3cnn(-c4ccccc4)c3C)c(N)c2C#N)cc1 [Compound 1-50, 4-Amino-2-(4-methoxy-phenylamino)-5-(5-methyl-1-phenyl-1H-pyrazole-4-carbonyl)-thiophene-3-carbonitrile]
- IC50 [1]: < 10 µM
- IC50 [2]: < 10 µM
- IC50 [3]: < 10 µM
- IC50 (PDE4D): < 10 µM

Structure (SMILES): Cc1c(C(=O)c2sc(NC3CCCC3)c(C#N)c2N)cnn1-c1ccccc1 [Compound 1-55, 4-Amino-2-cyclopentylamino-5-(5-methyl-1-phenyl-1H-pyrazole-4-carbonyl)-thiophene-3-carbonitrile]
- IC50 [1]: < 10 µM
- IC50 [2]: < 10 µM
- IC50 [3]: < 10 µM
- IC50 (PDE4D): < 10 µM

Structure (SMILES): Cc1c(C(=O)c2sc(NCC3CCCO3)c(C#N)c2N)cnn1-c1ccccc1 (stereo not shown) [Compound 1-57, 4-Amino-5-(5-methyl-1-phenyl-1H-pyrazole-4-carbonyl)-2-[(tetrahydro-furan-2-ylmethyl)-amino]-thiophene-3-carbonitrile]
- IC50 [1]: > 10 µM
- IC50 [2]: > 10 µM
- IC50 [3]: > 10 µM
- IC50 (PDE4D): < 10 µM

Structure (SMILES): Cc1onc(-c2ccccc2)c1C(=O)c1sc(NC2CCCC2)c(C#N)c1N [Compound 1-61, 4-Amino-2-cyclopentylamino-5-(5-methyl-3-phenyl-isoxazole-4-carbonyl)-thiophene-3-carbonitrile]
- IC50 [1]: < 10 µM
- IC50 [2]: < 10 µM
- IC50 [3]: < 10 µM
- IC50 (PDE4D): < 10 µM

Structure (SMILES): N#Cc1c(NCCN2CCCCC2)sc(C(=O)c2cc(-c3ccccc3)no2)c1N [Compound 1-62, 4-Amino-5-(3-phenyl-isoxazole-5-carbonyl)-2-(2-piperidin-1-yl-ethylamino)-thiophene-3-carbonitrile]
- IC50 [1]: > 10 µM
- IC50 [2]: > 10 µM
- IC50 [3]: > 10 µM
- IC50 (PDE4D): > 10 µM

Structure (SMILES): N#Cc1c(NC2CCCC2)sc(C(=O)c2ccccn2)c1N [Compound 1-66, 4-Amino-2-cyclopentylamino-5-(pyridine-2-carbonyl)-thiophene-3-carbontrile]
- IC50 [1]: < 10 µM
- IC50 [2]: < 10 µM
- IC50 [3]: < 10 µM
- IC50 (PDE4D): < 10 µM

Structure (SMILES): N#Cc1c(Nc2ccccc2F)sc(C(=O)c2ccc(-c3ccccn3)s2)c1N [Compound 1-67, 4-Amino-2-(2-fluoro-phenylamino)-5-(5-pyridin-2-yl-thiophene-2-carbonyl)-thiophene-3-carbonitrile]
- IC50 [1]: < 10 µM
- IC50 [2]: < 10 µM
- IC50 [3]: < 10 µM
- IC50 (PDE4D): < 10 µM

Structure (SMILES): COc1ccc(Nc2sc(C(=O)c3ccc(-c4ccccn4)s3)c(N)c2C#N)cc1 [Compound 1-68, 4-Amino-2-(4-methoxy-phenylamino)-5-(5-pyridin-2-yl-thiophene-2-carbonyl)-thiophene-3-carbonitrile]
- IC50 [1]: > 10 µM
- IC50 [2]: < 10 µM
- IC50 [3]: > 10 µM
- IC50 (PDE4D): < 10 µM

Structure (SMILES): N#Cc1cccc(Nc2sc(C(=O)c3ccc(-c4ccccn4)s3)c(N)c2C#N)c1 [Compound 1-69, 4-Amino-2-(3-cyano-phenylamino)-5-(5-pyridin-2-yl-thiophene-2-carbonyl)-thiophene-3-carbonitrile]
- IC50 [1]: < 10 µM
- IC50 [2]: < 10 µM
- IC50 [3]: < 10 µM
- IC50 (PDE4D): < 10 µM

Structure (SMILES): N#Cc1c(Nc2ccc3c(c2)CCC3)sc(C(=O)c2ccc(-c3ccccn3)s2)c1N [Compound 1-71, 4-Amino-2-(indan-5-ylamino)-5-(5-pyridin-2-yl-thiophene-2-carbonyl)-thiophene-3-carbonitrile]
- IC50 [1]: < 10 µM
- IC50 [2]: < 10 µM
- IC50 [3]: > 10 µM
- IC50 (PDE4D): < 10 µM

Structure (SMILES): COC(=O)C(CCSC)Nc1sc(C(=O)c2ccc(-c3ccccn3)s2)c(N)c1C#N (stereo not shown) [Compound 1-74, 2-[4-Amino-3-cyano-5-(5-pyridin-2-yl-thiophene-2-carbonyl)-thiophen-2-ylamino]-4-methylsulfanyl-butyric acid methyl ester]
- IC50 [1]: < 10 µM
- IC50 [2]: < 10 µM
- IC50 [3]: < 10 µM
- IC50 (PDE4D): < 10 µM

Structure (SMILES): COc1ccc(CNc2sc(C(=O)c3ccc(-c4ccccn4)s3)c(N)c2C#N)cc1OC [Compound 1-75, 4-Amino-2-(3,4-dimethoxy-benzylamino)-5-(5-pyridin-2-yl-thiophene-2-carbonyl)-thiophene-3-carbonitrile]
- IC50 [1]: < 10 µM
- IC50 [2]: < 10 µM
- IC50 [3]: < 10 µM
- IC50 (PDE4D): < 10 µM

Structure (SMILES): N#Cc1c(Nc2ccc(C(=O)NC3CCOC3=O)cc2)sc(C(=O)c2ccc(-c3ccccn3)s2)c1N (stereo not shown) [Compound 1-77, 4-[4-Amino-3-cyano-5-(5-pyridin-2-yl-thiophene-2-carbonyl)-thiophen-2-ylamino]-N-(2-oxo-tetrahydro-furan-3-yl)-benzamide]
- IC50 [1]: < 10 µM
- IC50 [2]: < 10 µM
- IC50 [3]: < 10 µM
- IC50 (PDE4D): < 10 µM

Structure (SMILES): N#Cc1c(NC2CCCC2)sc(C(=O)c2ccc(-c3ccccn3)s2)c1N [Compound 1-78, 4-Amino-2-cyclopentylamino-5-(5-pyridin-2-yl-thiophene-2-carbonyl)-thiophene-3-carbonitrile]
- IC50 [1]: < 10 µM
- IC50 [2]: < 10 µM
- IC50 [3]: < 10 µM
- IC50 (PDE4D): < 10 µM
